{"source": "patent US20130195770A1", "about": "“COMPOSITION AND METHOD FOR REDUCING ATHEROSCLEROTIC LESIONS” (DuPont Nutrition Bioscience ApS, priority 2010, published 2013)", "key": {"[1]": {"tested_on": "Transgenic mice", "test": "Aorta surface covered by atherosclerotic lesions, en face ORO staining", "format": "in vivo", "settings": "28 weeks", "text": "The surface of aorta covered with atherosclerotic lesions was quantified as described by Palinski et al. (1994) and Zampolli et al. (2006). Non-fasted animals were anesthetized with pentobarbital injected intraperitoneally. Next, maximum volume of blood was collected from the heart by direct cardiac puncture of the right ventricle. Blood was kept for further analyses as described above. The heart and arterial tree were then flushed with a heparin-containing cardioplegic solution via a cannula inserted into the left ventricle, followed by perfusion with formalin for 5 minutes. The arterial tree was exposed, branching arteries were removed and entire aorta was dissected from the aortic arch down to the iliac bifurcation. Using a stereomicroscope, aortas were cleaned from periadventitial tissue; remaining branches were cut off and opened longitudinally by incision following the inner curvature of the aortic arch and the ventral side of the aorta. Additional incisions followed the outer curvature of the arch to the subclavian artery. An Oil Red 0 (ORO) staining solution was prepared by diluting the ORO stock solution (5 mg/ml in 2-propanol; Sigma Aldrich) with deionized water (6:4). Dissected aortas were stained for 30 minutes with ORO, followed by rinsing with 2-propanol and deionized water. Stained aortas were then laid flat on the microscope slide with endothelial side facing upwards. The tissues were mounted with aqueous mounting agent (Aquatex®, Merck Chemicals, Darmstadt, Germany) and covered with glass slide cover slip.\nDigital images of the slides were obtained through the 48-bit color scanner (Canoscan 9950F, Canon) with 1200 DPI resolution. The images were captured in Photoshop CS3 Extended software and converted to gray scale. After further processing, including sharpness, contrast and brightness adjustments, and the image of aorta was printed out in two copies. […] Images of a hand-drawn aorta outlines and regions (patches) matching atherosclerotic lesions were then scanned and re-imported into Adobe Photoshop and the images were then evaluated obtain the percent of aorta covered with atherosclerotic lesions. Briefly, in the digitized image of entire aorta and the image of the patches corresponding to lesions, red outlined areas were converted to black and the blackness values for all pixels in the image were summed and counted.\nTransgenic mice were randomized into 5 dietary regiments: (1) Normal chow (NC), (2) NC+0.2% cholesterol oleate (CLE), (3) Western type diet (WD) containing 0.2% cholesterol, (4) WD containing 0.2% cholesterol and 0.2% CLE, (5) WD containing 0.1% cholesterol and 0.1% CLE. The extent of the lesions was quantified as percent area positive to lipid staining by ORO in the entire aorta after 28 weeks of experimental treatments."}, "[2]": {"tested_on": "CaCo-2 cells", "test": "Uptake of micellar cholesterol by CaCo-2 cells with or without unlabeled cholesteryl oleate", "format": "cell-based, Human", "settings": "CaCo-2 monolayers, 45 min at 37° C., [1,2-3H] cholesterol micelles with or without unlabeled cholesteryl oleate; p<0.001; FIG. 1A", "text": "(§1) Human colon adenocarcinoma (Caco-2) cells were kindly provided by J T Rasmussen (Department of Molecular Biology Aarhus University C. F. M0llers Alle 3DK-8000 Aarhus CDenmark). Cells were routinely maintained in NUNCLON flasks in Dulbecco's […] (DMEM) supplemented with 4.5g/1 glucose. 10% heat-inactivated fetal bovine serum (FBS), 1% nonessential amino acid (NEAA), and 1% antibiotics (complete medium), as previously described (Hidalgo I J. Raub T J. Borchardt R T, Gastroenterology, (1989) ar;96(3):736-49). Once the flasks reached 80% confiuency, the cells were dispersed and seeded into 24-well plates at density 10^5 cells/well in DMEM supplemented with 10% FBS and 1% NEAA. […]\n(§2) Micelles were prepared according to the method described by Kirana (Kirana C. Rogers P F, Bennett L E, Abevwardena M Y, Patten G S, J Agric Food Chem. (2005) Jun. 1; 53(1 1):4623-7) with slight modifications. […] The particle size of micelles was determined by dynamic light scattering (DLS) with use of the Malvern Zetasizer Nano series machine using latex 60 nm Nanosphere Size Standard.\nMonolayers were incubated at 37° C. for 45 min in micellar solutions containing [1,2-^3H] cholesterol with or without unlabeled cholesteryl oleate. […] The cells were analyzed as described above. […]"}, "[3]": {"tested_on": "wild type male mice (C57BL/6J)", "test": "Intestinal absorption of cholesterol in mice, plasma dual isotope ratio method, with added cholesteryl oleate", "format": "in vivo", "settings": "oral bolus [14C]-cholesterol + unlabeled cholesteryl oleate (molar ratio 1:1) in skimmed milk, plasma after three days; p<0.05; FIG. 2A", "description": "The net intestinal absorption of cholesterol and cholesteryl esters was measured using the plasma dual isotope ratio method described in Wang et al (Journal of Lipid Research, [2003] 44, 1042-1059). This method is based on the simultaneous intragastric (IG) and intravenous (IV) administration of […], and measurement of plasma cholesterol isotope ratios at a set point in time. By definition, the […] corresponds to “100% absorption”, whereas the [^3H]-cholesterol found in the blood reflects the absorption by the gastrointestinal tract. The method allows correction for post-absorptive cholesterol metabolism and for colonic handling of the malabsorbed labelled cholesterol by […] Fifteen wild type male mice (C57BL/6J), age of 5 weeks were randomly assigned into 3 groups. An amount of 2.5 μCi of [^3H]-cholesterol was dissolved in 100 μl of phosphate buffered saline (PBS) and injected into the tail vein of non fasted and not-anesthetized animals. The animal were then given an oral bolus (IG) dose of either [^14C]-cholesterol, [^14C]-cholesterol+unlabeled cholesteryl oleate (molar ratio 1:1) or [^14C]-cholesteryl oleate dissolved in skimmed milk. […] The percent of cholesterol absorption in plasma was calculated using (1)."}, "[4]": {"tested_on": "CaCo-2 cells", "test": "Uptake of micellar cholesteryl oleate by CaCo-2 cells", "format": "in vitro ADME, Human", "settings": "micelles containing [1,2-3H] cholesteryl oleate vs labeled cholesterol, FIG. 1B", "text": "as §1, §2\nDifferentiated Caco-2 cells were incubated at 37° C. for 1, 3 and 5 hours with micellar solutions containing ^3H-labelled cholesteryl oleate according to the method described above. […] For quantitative analysis ^14C-cholesterol was used as an external standard to correct for the extraction efficiency. […]"}, "[5]": {"tested_on": "wild type male mice (C57BL/6J)", "test": "Intestinal absorption of cholesteryl oleate in mice, plasma dual isotope ratio method", "format": "in vivo", "settings": "oral bolus [14C]-cholesteryl oleate in skimmed milk, plasma after three days; p<0.001; FIG. 2B", "experimental": "The net intestinal absorption of cholesterol and cholesteryl esters was measured using the plasma dual isotope ratio method described in Wang et al (Journal of Lipid Research, [2003] 44, 1042-1059). This method is based on the simultaneous intragastric (IG) and intravenous (IV) administration of [^3H] -cholesterol and [^14C] -cholesterol, respectively, and measurement of plasma cholesterol isotope ratios at a set point in time. By definition, the IV [^14C]-cholesterol dose corresponds to “100% absorption”, whereas the [^3H]-cholesterol found in the blood reflects the absorption by the gastrointestinal tract. The method allows correction for post-absorptive cholesterol metabolism and for colonic handling of the malabsorbed labelled cholesterol by defining Fifteen wild type male mice (C57BL/6J), age of 5 weeks were randomly assigned into 3 groups. An amount of 2.5 μCi of [^3H]-cholesterol was dissolved in 100 μl of phosphate buffered saline (PBS) and injected into the tail vein of non fasted and not-anesthetized animals. The animal were then given an oral bolus (IG) dose of either [^14C]-cholesterol, [^14C]-cholesterol+unlabeled cholesteryl oleate (molar ratio 1:1) or [^14C]-cholesteryl oleate dissolved in skimmed milk. […] The percent of cholesterol absorption in plasma was calculated using (1)."}}, "data": [{"molecule": "CCCCCCCC/C=C\\CCCCCCCC(=O)O[C@H]1CC[C@@]2(C)C(=CC[C@H]3[C@@H]4CC[C@H]([C@H](C)CCCC(C)C)[C@@]4(C)CC[C@@H]32)C1", "note": "[cholesteryl oleate]", "values": [{"measurement": "effect on atherosclerotic lesions in Western type diet", "setting": "[1]; WD vs WD+0.2% CLE and WD+0.1% CLE, FIGS. 3 and 4", "result": "lowered atherosclerotic lesions"}, {"measurement": "rate of atherosclerosis, WD+0.2% CLE compared with WD+0.1% CLE", "setting": "[1]; mice fed WD+0.2% CLE", "result": "higher rates of atherosclerosis than mice fed with WD+0.1% CLE"}, {"measurement": "total plaque area (percent area positive to ORO in the entire aorta)", "setting": "[1]; normal chow (NC)+0.2% CLE", "result": "1.2±0.9", "unit": "%"}, {"measurement": "difference in plaque formation between NC and NC+0.2% CLE", "setting": "[1]; normal chow", "result": "no difference between those two treatments"}, {"measurement": "more cholesterol accumulated by cells incubated with cholesterol micelles alone compared to micelles containing both cholesterol and cholesteryl oleate", "setting": "[2]", "result": 30, "unit": "%"}, {"measurement": "reduction in cholesterol adsorption compared to [14C]-cholesterol treated mice", "setting": "[3]", "result": 12, "unit": "%"}, {"measurement": "fold less labeled sterol in cells incubated with cholesteryl oleate micelles compared to cholesterol micelles", "setting": "[4]", "result": "approximately 2 fold"}, {"measurement": "reduction in cholesterol uptake compared to mice treated with [14C]-cholesterol", "setting": "[5]", "result": 50, "unit": "%"}]}]}
